Test results published in patent publication US8865672B2, “Prevention of tissue ischemia and related methods” (The United States of America, as represented by the …, priority 2006, dated 2014).

What was measured:
human platelets [1] = assay: Thrombin-induced human platelet aggregation; type: cell-based; details: for NO delay of thrombin-induced platelet aggregation: DEA/NO 10 μM
Method in brief: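 Washed human platelets in Tyrode's buffer pH 7.4 (2×10^5/μl) are stirred at 1200 rpm and 37 °C, and optical aggregation is followed for 5 min; under static conditions, A400 is tracked for 5 min instead. TSP1 agents or 1 μM peptide C6d are pre-incubated for 15 min before thrombin ± DEA/NO (10 μM).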

human platelets [2] = assay: Human platelet adhesion assay; type: cell-based; details: for stimulation of adhesion by TSP1: fibrinogen, in the presence of NO
Procedure: Bacteriological Petri dishes (35×10 mm, Becton Dickinson Labware) were pre-coated with collagen (3 μg/ml) or fibrinogen (15 μg/mL) overnight. Following aspiration of non-adherent matrix, dishes were blocked with 1% BSA. Fresh platelets were washed and suspended in Tyrode's buffer and allowed to adhere for 30 minutes. Plates were washed with PBS, fixed with 0.5% glutaraldehyde and stained with 0.02% toluidine blue. Adherent platelets were counted microscopically. In some experiments platelets were pre-incubated with the Rap1 geranylgeranyltransferase inhibitor GGTI-298 (10 μM) for 30 minutes prior to initiating adhesion.

cGK-I = target: T1, cGK-I (Homo sapiens, UniProt Q13976); assay: cGK in vitro kinase assay of platelet lysates; type: biochemical
T1 construct: endogenous in cells; host or cells: washed human platelets, treated intact, then lysed
T1 sequence (Q13976 1-686 isoform Q13976-2): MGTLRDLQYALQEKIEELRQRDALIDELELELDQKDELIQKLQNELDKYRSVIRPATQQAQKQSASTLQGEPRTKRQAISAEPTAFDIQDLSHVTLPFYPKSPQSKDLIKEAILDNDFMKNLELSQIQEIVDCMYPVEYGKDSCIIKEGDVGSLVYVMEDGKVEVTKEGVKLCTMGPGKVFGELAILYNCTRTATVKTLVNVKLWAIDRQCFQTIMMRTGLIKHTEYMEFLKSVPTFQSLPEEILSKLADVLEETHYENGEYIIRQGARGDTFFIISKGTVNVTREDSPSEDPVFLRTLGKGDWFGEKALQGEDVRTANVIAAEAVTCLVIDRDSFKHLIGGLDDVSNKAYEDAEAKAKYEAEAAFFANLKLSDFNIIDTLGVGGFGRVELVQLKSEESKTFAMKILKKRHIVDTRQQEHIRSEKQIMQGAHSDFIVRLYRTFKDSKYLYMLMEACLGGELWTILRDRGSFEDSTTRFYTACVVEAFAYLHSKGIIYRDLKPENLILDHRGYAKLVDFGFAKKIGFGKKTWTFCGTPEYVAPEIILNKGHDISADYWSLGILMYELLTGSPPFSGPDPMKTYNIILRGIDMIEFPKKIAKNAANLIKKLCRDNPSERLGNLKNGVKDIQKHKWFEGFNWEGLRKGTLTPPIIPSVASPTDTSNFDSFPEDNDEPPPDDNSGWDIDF
Procedure: Platelets were washed as described above and resuspended in Tyrode's buffer (3×10^8 platelets/mL). Platelets were preincubated with TSP1 (2.2 nM) or Rp-8-pCPT-cGMP for 15 minutes prior to treatment with 8-Br-cGMP (100 μM) or NO (DEA/NO 10 μM) for 2 minutes. Treatment was stopped by placing the platelets on ice. Immediately following treatment, platelets were pelleted by centrifugation at 13,000×g at 4° C. for 15 seconds and resuspended in a lysis buffer containing 10 mM HEPES (pH 7.4), 1 mM EDTA, 1 mM 3-Isobutyl-1-methylxanthine, 125 mM KCl, 1 mM phenylmethysulfonylfluoride, 1 μg/ml aprotinin, and 1 μg/ml leupeptin. Resuspended platelets were sonicated on ice 3 times for 10 seconds each before centrifugation at 13,000×g for 5 minutes at 4° C. 100 μg lysate from each sample was incubated at 25° C. for 20 minutes with kinase buffer (150 μM Arg-Lys-Arg-Ser-Arg-Ala-Glu (SEQ ID NO: 17) peptide substrate (Bachem, King of Prussia, Pa.)), 10 mM HEPES pH 7.4, 35 mM β-glycerophosphate, 4 mM MgCl2, 5 μM Rp-8 pCPT-cAMPS, 0.5 mM EDTA, […] [γ-32P]ATPS (Sigma-Aldrich, St. Louis, Mo.)). Kinase assay reactions were terminated by spotting 50 μL of reaction mixture onto nitrocellulose. Nitrocellulose spots were washed 5 times each with 100 μL of 0.5% phosphoric acid before analysis with a scintillation counter.

Substance: TSP1: thrombospondin-1 prepared from human platelets
- platelet aggregation at high shear in the presence of NO (human platelets [1]; GGTI-298 preincubation): maintained its ability to accelerate platelet aggregation
- lowest concentration tested, sufficient to accelerate platelet aggregation in the presence of NO (human platelets [1]; high shear): 0.022 nM
- NO delay of thrombin-induced platelet aggregation (human platelets [1]; high shear, thrombin 0.2 U/ml): reversed in a dose-dependent manner
- NO delay of thrombin-induced platelet aggregation (human platelets [1]; static / low shear conditions): completely abrogated
- basal adhesion of platelets on type I collagen and fibrinogen (human platelets [2]; TSP1 2.2 nM): moderately increased basal adhesion
- decrease in platelet adhesion in response to exogenous NO (human platelets [2]; fibrinogen or collagen, DEA/NO 10 μM): lost
- stimulation of adhesion by TSP1 (human platelets [2]): 55±9%
- stimulation of adhesion by TSP1 (human platelets [2]; following Rap1 blockade with GGTI-298): 25±8%
- 32P-incorporation into cGK-I selective peptide (cGK-I; activation via sGC using DEA/NO in intact platelets): prevented
- 32P incorporation into cGK-I selective peptide (cGK-I; stimulated by 100 μM 8Br-cGMP, TSP1 2.2 nM): inhibited 32P incorporation
